pIC50: −log10 of the molar value. Values after ≈ are worked out from the molar mass of the structure shown.
Experiments:
[1] = test system: MCF7; assay: […] activity against human MCF7 cells; format: functional, cell-based
[2] = test system: CCRF-CEM; assay: […] activity against human CCRF-CEM cells; format: functional, cell-based
[3] = test system: Mycobacterium tuberculosis; assay: Antimycobacterial activity against Mycobacterium tuberculosis H37Rv by microplate alamar blue assay; format: functional
[4] = test system: Malme-3M; assay: […] activity against human MALME-3M cells; format: functional, cell-based
[5] = test system: Plasmodium falciparum; assay: Antiplasmodial activity against Plasmodium falciparum; format: functional, organism-based
[6] = test system: Vero; assay: Cytotoxicity against african green monkey Vero cells; format: cell-based; settings: Chlorocebus sabaeus

Q: Which results are given for `C1=C\CCCCN2CC[C@@H]3[C@@H](CCCC/C=C\CCCCN4C[C@H](CCCC/1)C[C@H]3C4)C2` [NEOPETROSIAMINE A]?
A: pIC50 [1]: 5.46; pIC50 [2]: 5.70; MIC [3]: 7.5 µg/mL (≈ 17 µM); pIC50 [4]: 5.82; pIC50 [5]: 5.64; IC50 [6]: 42.4 µg/mL (≈ 96.2 µM)

From ChEMBL document CHEMBL1255508, “Neopetrosiamine A, biologically active bis-piperidine alkaloid from the Caribbean sea sponge Neopetrosia proxima” (Bioorg Med Chem Lett, 2010)
